Here are results for 1 molecule from patent US8815565B2, “Method for culturing mycoplasma contamination-free cells and method for removing mycoplasma contamination of cells” (Cellsafe Co., Ltd., priority 2010, dated 2014).

Experiment [1] concerns cell lines NIH3T3, HepG2, and Raw 264.7 contaminated with mycoplasma. As to the kind of experiment: Removing mycoplasma from contaminated cell lines with AM3, PCR with mycoplasma diagnosis kit. It is filed as cell-based. To be noted: 20 μg/ml, two 3-day cultures; NIH3T3, HepG2, Raw 264.7. The method, then: Various cell lines constructed in laboratories of colleges located in Seoul were obtained. The obtained cell lines were cultured in a DMEM (GIBCO BRL, Cat. No. 12800-058) for 3 days, and then the cells were harvested. PCR was performed thereon with a mycoplasma diagnosis kit (Promokine, Germany; Cellsafe Co., Ltd., Korea) according to the enclosed protocol. The resulting PCR products were electrophoresed on a 1% agarose gel to measure the mycoplasma contamination. As a result, it was confirmed that three cell strains, i.e., NIH3T3, HepG2, Raw 264.7 cell lines, were infected with mycoplasma (see FIG. 1).
The cell lines NIH3T3, HepG2, and Raw 264.7, which were confirmed to be contaminated with mycoplasma, were each inoculated at a concentration of 1×10^6 cells on a T-75 culture flask (NUNC, Cat. No. 156367). DMEM (GIBCO BRL, Cat. No. 12800-058) containing 10% or less of serum (GIBCO BRL, Cat. No. 10082-147) was added thereto, followed by culturing for 3 days.
The cell lines NIH3T3, HepG2, and Raw 264.7, which were confirmed to be contaminated with mycoplasma, were each inoculated at a concentration of 1×10^6 cells on a T-75 culture flask (NUNC, Cat. No. 156367). DMEM (GIBCO BRL, Cat. No. 12800-058) containing 10% or less of serum (GIBCO BRL, Cat. No. 10082-147) was added thereto and then 20 μg/ml of amphidinol 3 (AM3) was added thereto. […]

The test system of experiment [2] is Mycoplasma hyorhinis (ATCC 17981) inoculated on HepG2 cell line. The experiment in a line: Preventive activity against mycoplasma contamination during cell culturing. Format: cell-based. To be noted: 20 μg/ml AM3 and 20 μM surfactin, 1×10^3 cfu Mycoplasma hyorhinis. As for the experimental part: A cell line HepG2, which was not contaminated with mycoplasma, was inoculated at a concentration of 1×10^5 cells on DMEM (GIBCO BRL, Cat. No. 12800-058) including 10% or less serum (GIBCO BRL, Cat. No. 10082-147). The cell line was treated with 20 μg/ml of amphidinol 3 (AM3) and 20 μM of surfactin, followed by inoculation of 1×10^3 cfu (colony formin unit) of Mycoplasma hyorhinis (ATCC 17981). The cell line was cultured in an incubator at a temperature of 37° C. and in a condition of 5% CO2 for 3 days. Sub-culturing was performed twice per week. The cells were harvested every week and then PCR was performed thereon with a mycoplasma diagnosis kit (Promokine, Germany; Cellsafe Co., Ltd., Korea) according to the enclosed protocol. The resulting PCR products were electrophoresed on a 1% agarose gel to measure the mycoplasma contamination.

Each structure is given as a SMILES string.

On to `C=C/C=C/CC/C=C/C=C/C=C/CC/C=C/C(O)C(O)C1OC(C(O)C(O)C(=C)CCC(O)C2CC(O)C(O)C(C(O)C(O)/C=C(\C)CCC(O)CC(O)C(O)C(C)CC(O)C(O)CCCCCC(O)CCCC(O)/C=C/CC(O)/C=C/CC(O)CO)O2)CC(O)C1O` (centres unmarked) [AM3, amphidinol 3], for which the mycoplasma contamination result in experiment [1] is “completely removed”. In addition, the “mycoplasma contamination after artificial inoculation” value in experiment [2] is on record as “stably cultured without mycoplasma contamination”.
